According to ChEMBL document CHEMBL5620346, “Current scenario of pyrazole hybrids with in vivo therapeutic potential against cancers” (Eur J Med Chem, 2023):

Key:
[1] = Tmax in mouse at 40 mg/kg, po; assay type: ADME, organism-based; details: in vivo
KCL-22 = test: Antitumor activity against human KCL-22 cells xenografted in mouse assessed as reduction in tumor growth at 3 mg/kg, po relative to control; details: KCL-22, po, read-out: TGI
[2] = Half life in mouse at 40 mg/kg, po; assay type: ADME, organism-based; details: in vivo
HeLa [3] = test: Cytotoxicity against human HeLa cells assessed as reduction in cell viability incubated for 72 hrs by MTT assay; assay type: functional, cell-based
MCF7 [4] = test: Cytotoxicity against human MCF7 cells assessed as reduction in cell viability incubated for 72 hrs by MTT assay; assay type: functional, cell-based; details: MCF7, 72 h
HepG2 = test: Cytotoxicity against human HepG2 cells assessed as reduction in cell viability incubated for 72 hrs by MTT assay; assay type: functional, cell-based; details: HepG2, 72 h
HT-29 [5] = test: Antitumor activity against human HT-29 cells xenografted in po dosed nude mouse assessed as reduction in tumor growth at 20 mg/kg relative to control; assay type: functional; details: read-out: TGI
HeLa [6] = test: Antiproliferative activity against human HeLa cells assessed as reduction in cell viability incubated for 72 hrs by MTT assay; assay type: functional, cell-based
HCT-116 = test: Antiproliferative activity against human HCT-116 cells assessed as reduction in cell viability incubated for 72 hrs by MTT assay; assay type: functional, cell-based; details: HCT-116, 72 h
[7] = Cmax in mouse at 1 mg/kg, sc; assay type: ADME, organism-based; details: in vivo
[8] = Tmax in mouse at 1 mg/kg, sc; assay type: ADME, organism-based; details: in vivo
HT-29 [9] = test: Antiproliferative activity against human HT-29 cells assessed as reduction in cell viability incubated for 72 hrs by MTT assay; assay type: functional, cell-based; details: HT-29, 72 h
[10] = Oral bioavailability in mouse at 1 mg/kg; assay type: ADME, organism-based; details: in vivo
HGC-27 = test: Antiproliferative activity against human HGC-27 cells assessed as reduction in cell viability incubated for 72 hrs by MTT assay; assay type: functional, cell-based; details: HGC-27, 72 h
[11] = Oral bioavailability in dog; details: in vivo
[12] = Oral bioavailability in rat; details: in vivo
[13] = biological target: Heat shock protein HSP 90-alpha (Homo sapiens, UniProt P07900); test: Inhibition of human recombinant HSP90alpha expressed in Escherichia coli BL21 (DE3) incubated for 12 hrs by
[14] = biological target: Heat shock protein HSP 90-beta (Homo sapiens, UniProt P08238); test: Inhibition of human recombinant HSP90beta expressed in Escherichia coli BL21 (DE3) incubated for 12 hrs
[15] = Cytotoxicity against human KOB cells assessed as cell growth inhibition incubated for 72 hrs by MTT assay; assay type: functional, cell-based
[16] = Antitumor activity against human HuT 102 cells xenografted in mouse assessed as reduction in tumor growth at 14 mg/kg, po relative to control; assay type: functional; details: read-out: TGI
[17] = Cytotoxicity against human HuT 102 cells assessed as reduction in cell growth incubated for 72 hrs by MTT assay; assay type: functional, cell-based; details: HuT-102, 72 h
[18] = Cytotoxicity against human OATL4 cells assessed as cell growth inhibition incubated for 72 hrs by MTT assay; assay type: functional, cell-based; details: OATL4, 72 h
K562 = test: Cytotoxicity against human K562 cells assessed as reduction in cell viability incubated for 48 hrs by MTT assay; assay type: functional, cell-based; details: K562, 48 h
HT-29 [19] = test: Cytotoxicity against human HT-29 cells assessed as reduction in cell viability incubated for 48 hrs by MTT assay; assay type: functional, cell-based; details: HT-29, 48 h
MCF7 [20] = test: Cytotoxicity against human MCF7 cells assessed as reduction in cell viability incubated for 48 hrs by MTT assay; assay type: functional, cell-based; details: MCF7, 48 h
HT-29 [21] = test: Antitumor activity against human HT-29 cells xenografted in BALB/c mouse assessed as reduction in tumor growth at 25 mg/kg, ip relative to control; assay type: functional; set-up: scale not given: the % may be the effect or the level left
[22] = biological target: Receptor-type tyrosine-protein kinase FLT3 (Homo sapiens, UniProt P36888, D835H); test: Inhibition of FLT3 D835H mutant (unknown origin)
[23] = biological target: Cyclin-dependent kinase 4 (Homo sapiens, UniProt P11802); test: Inhibition of CDK4 (unknown origin)
MV4-11 = test: Antitumor activity against human MV4-11 cells xenografted in mouse assessed as tumor growth inhibition at 200 mg/kg, po relative to control; assay type: functional; details: read-out: TGI
T47D [24] = test: Antitumor activity against human T47D cells xenografted in nude BALB/c mouse assessed as tumor growth inhibition at 40 mg/kg administered via oral gavage for 20 days relative to control; assay type: functional; details: 480 h, time 20 day, read-out: TGI
T47D [25] = test: Antitumor activity against human T47D cells xenografted in nude BALB/c mouse assessed as tumor growth inhibition at 20 mg/kg administered via oral gavage for 20 days relative to control; assay type: functional; details: 480 h, time 20 day, read-out: TGI
MDA-MB-453 = test: Antiproliferative activity against human MDA-MB-453 cells assessed as reduction in cell viability incubated for 72 hrs by MTT assay; assay type: functional, cell-based; details: MDA-MB-453, 72 h
BT-549 [26] = test: Antiproliferative activity against human BT-549 cells assessed as inhibition of cell proliferation incubated for 72 hrs by MTT assay; assay type: functional, cell-based; details: BT-549, 72 h
MCF7 [27] = test: Antiproliferative activity against human MCF7 cells assessed as reduction in cell viability incubated for 72 hrs by MTT assay; assay type: functional, cell-based; details: MCF7, 72 h
BT-549 [28] = test: Antitumor activity against human BT-549 cells xenografted in BALB/c nude mouse assessed as tumor growth inhibition at 30 mg/kg, sc administered for 20 days relative to control; assay type: functional; details: BT-549, 480 h, time 20 day, read-out: TGI
T47D [29] = test: Antiproliferative activity against human T47D cells assessed as reduction in cell viability incubated for 72 hrs by MTT assay; assay type: functional, cell-based
MDA-MB-231 = test: Antiproliferative activity against human MDA-MB-231 cells assessed as reduction in cell viability incubated for 72 hrs by MTT assay; assay type: functional, cell-based; details: MDA-MB-231, 72 h

Chain of Heat shock protein HSP 90-beta (P08238 whole entry): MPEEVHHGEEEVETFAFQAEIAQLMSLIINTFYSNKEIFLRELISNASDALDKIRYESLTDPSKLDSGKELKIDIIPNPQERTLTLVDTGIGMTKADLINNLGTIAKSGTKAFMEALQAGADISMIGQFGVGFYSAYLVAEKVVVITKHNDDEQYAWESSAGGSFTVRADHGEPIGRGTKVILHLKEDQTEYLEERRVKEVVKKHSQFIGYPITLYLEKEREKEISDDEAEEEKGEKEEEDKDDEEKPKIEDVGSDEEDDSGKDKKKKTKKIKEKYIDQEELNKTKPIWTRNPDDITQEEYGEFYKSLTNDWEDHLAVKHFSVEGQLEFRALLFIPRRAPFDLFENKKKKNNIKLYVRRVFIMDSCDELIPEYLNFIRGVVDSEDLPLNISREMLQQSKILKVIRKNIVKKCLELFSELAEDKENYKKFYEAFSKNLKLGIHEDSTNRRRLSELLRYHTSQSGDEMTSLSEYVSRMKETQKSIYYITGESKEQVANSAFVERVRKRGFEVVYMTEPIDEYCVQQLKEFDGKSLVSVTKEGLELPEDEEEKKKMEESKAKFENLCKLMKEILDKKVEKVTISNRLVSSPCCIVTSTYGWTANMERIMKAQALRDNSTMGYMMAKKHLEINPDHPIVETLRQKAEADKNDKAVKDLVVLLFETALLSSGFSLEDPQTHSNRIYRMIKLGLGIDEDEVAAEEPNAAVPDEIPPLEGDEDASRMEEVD
Chain of Cyclin-dependent kinase 4 (P11802 whole entry): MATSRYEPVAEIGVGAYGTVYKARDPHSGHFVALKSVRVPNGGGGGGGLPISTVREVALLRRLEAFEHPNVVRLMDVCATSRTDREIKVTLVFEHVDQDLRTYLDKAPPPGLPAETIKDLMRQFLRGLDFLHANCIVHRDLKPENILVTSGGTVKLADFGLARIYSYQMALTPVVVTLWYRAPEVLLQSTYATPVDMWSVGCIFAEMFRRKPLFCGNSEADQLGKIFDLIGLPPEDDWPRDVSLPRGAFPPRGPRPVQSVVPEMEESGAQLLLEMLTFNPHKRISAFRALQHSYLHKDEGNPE

SMILES: O=C(Nc1ccc(OC(F)(F)Cl)cc1)c1cnc(N2CC[C@@H](O)C2)c(-c2ccn[nH]2)c1 [ASCIMINIB]
- Tmax [1]: 2.5 h
- inhibition in vivo at 3 mg/kg (KCL-22): 65%
- half-life [2]: 5.5 h

SMILES: CCOC(=O)C1=C(N/C=N/c2cccnc2Cl)Nc2[nH]nc(C)c2C1c1ccc(N(C)C)cc1 (stereo not given)
- IC50 (HeLa [3]): 4.18 µM
- IC50 (MCF7 [4]): 4.24 µM
- IC50 (HepG2): 4.55 µM

SMILES: CCOC(=O)C1=C(N)Nc2[nH]nc(C)c2C1c1ccc(N(C)C)cc1 (stereo not given)
- IC50 (HeLa [3]): 4.18 µM
- IC50 (MCF7 [4]): 4.24 µM
- IC50 (HepG2): 4.55 µM

SMILES: COc1cc(/C=C2\CCCN3C(=O)C4C=NN(C)C4N=C23)cc(OC)c1OC (stereo not given)
- inhibition in vivo at 20 mg/kg (HT-29 [5]): 61.7%
- IC50 (HeLa [6]): 0.03 µM
- IC50 (HCT-116): 0.03 µM
- Cmax [7]: 68.8 ng/mL
- Tmax [8]: 1.67 h
- IC50 (HT-29 [9]): 0.03 µM
- bioavailability [10]: 78.6%
- IC50 (HGC-27): 0.03 µM

SMILES: COc1cc(OC)c(F)c(COc2cnc(Nc3cnn(CCO)c3)nc2)c1F [ASP-5878]
- bioavailability [11]: 94.2%
- bioavailability [12]: 76.1%

SMILES: CCc1cc(C(N)=O)ccc1-n1nc(C(C)C)c2c(-n3cnc(-c4cnn(C)c4)c3)ccnc21 [TAS-116]
- IC50 [13]: 0.0347 µM
- IC50 [14]: 0.0213 µM
- IC50 [15]: 0.376 µM
- inhibition in vivo at 14 mg/kg [16]: 70%
- IC50 [17]: 0.376 µM
- IC50 [18]: 0.376 µM

SMILES: O=C1NC(=O)/C(=C/c2ccc3cc(OCC(=O)N4N=C(c5ccc(F)cc5)CC4c4ccccc4Cl)ccc3c2)S1 (stereo not given)
- IC50 (K562): 8.2 µM
- IC50 (HT-29 [19]): 8.2 µM
- IC50 (MCF7 [20]): 8.2 µM
- Activity (HT-29 [21]): 30%

SMILES: CCN1CCN(c2ccc(Nc3ncc(F)c(-c4cnc5cnn(C(C)C)c5c4)n3)cc2OC)CC1
- IC50 [22]: 0.011 µM
- IC50 [23]: 0.007 µM
- inhibition in vivo at 200 mg/kg (MV4-11): 67%

SMILES: COc1ncc(-c2ccc3ncnc(Nc4cnn(CCO)c4)c3c2)cc1NS(=O)(=O)c1ccc(F)cc1F
- inhibition in vivo at 40 mg/kg (T47D [24]): 84.1%
- inhibition in vivo at 20 mg/kg (T47D [25]): 54.1%

SMILES: CN(C)S(=O)(=O)Nc1cccc(-c2cnn(-c3ccc(C(F)(F)F)cc3)c2)c1
- IC50 (MDA-MB-453): 3.44 µM
- IC50 (BT-549 [26]): 3.44 µM
- IC50 (MCF7 [27]): 3.44 µM
- inhibition in vivo at 30 mg/kg (BT-549 [28]): ~50%
- IC50 (T47D [29]): 3.44 µM
- IC50 (MDA-MB-231): 3.44 µM
